Experimental findings from ChEMBL document CHEMBL1201862, “PubChem BioAssay data set” (2004) are described below.

Molecules are shown by their SMILES.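 A five-concentration, 48-hour dose response in 96-well plates underlies each endpoint, interpolated linearly between surrounding concentrations. GI50 marks 50% less growth.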 The source made the active and inactive calls. No stated cut-off is given here; in the data, active = GI50 up to about 1.1 µM and inactive = higher.

Test in all cases: NCI anticancer screen, dose series, 48 h
Experiment [1] has as its system 786-0.
For experiment [2], the system named is ACHN.
Experiment [3] deals with BT-549.
Experiment [4] concerns COLO 205.
Experiment [5] has as its system EKVX.
Experiment [6] deals with HCT-15.
Experiment [7] relates to HOP-62.
Experiment [8] concerns K562.
In experiment [9] the test system is MCF7.
For experiment [10], the system named is MOLT-4.
The test system of experiment [11] is Malme-3M.
Experiment [12] has as its system NCI-H23.
Experiment [13] deals with PC-3.
Experiment [14] relates to SF-295.
Experiment [15] has as its system SF-539.
Experiment [16] concerns SK-MEL-5.
Experiment [17] concerns SN12C.
Experiment [18] deals with SNB-75.

On to `COc1cc(C2c3cc4c(cc3OC(N3CCOCC3)C2C)OCO4)cc(OC)c1OC(C)=O` (stereo not drawn), for which the GI50 in [1] is 15.8 µM (inactive); in experiment [2], 26.6 µM (inactive); in experiment [3] it was 7.89 µM (inactive); in [4], 19.3 µM (inactive); in [5] it was 47.5 µM (inactive); in experiment [6], 15 µM. For the same compound, the GI50 in experiment [7] is 12.4 µM (inactive); in experiment [8], 3.81 µM (inactive); in [9], 8.59 µM (inactive); in [10], 13 µM (inactive); in [11] it was 5.9 µM (inactive); in experiment [12], 31.3 µM (inactive). In addition, the GI50 was 13.5 µM (inactive) in [13]; 4.15 µM (inactive) in [14]; 13.3 µM (inactive) in experiment [15]; 4.46 µM (inactive) in experiment [16]; 17.7 µM (inactive) in [17]; 3.74 µM (inactive) in experiment [18].

As for `Oc1ccc2ccccc2c1C(c1ccc(Cl)cc1)c1c(O)ccc2ccccc12`, the GI50 in experiment [1] is 3.66 µM (inactive); in experiment [2], 3.52 µM (inactive); in [3] it was 4.65 µM (inactive); in [4], 2.06 µM (inactive); in [5] it was 2.59 µM (inactive); in [6], 3.49 µM. Besides, the GI50 was 3.89 µM (inactive) in experiment [7]; 2.67 µM (inactive) in experiment [8]; 3.57 µM (inactive) in experiment [9]; 2.86 µM (inactive) in experiment [10]; 2 µM (inactive) in experiment [11]; 3.78 µM (inactive) in experiment [12]. Also, the GI50 is 2.51 µM (inactive) in [13]; 3.4 µM (inactive) in experiment [14]; 5.05 µM (inactive) in experiment [15]; 2.3 µM (inactive) in [16]; 2.76 µM (inactive) in [17]; 3.18 µM (inactive) in experiment [18].

In the case of `CC[C@@]1(O)C(=O)OCc2c1cc1n(c2=O)Cc2c-1nc1ccc(N)cc1c2CC[Si](C)(C)C`, the GI50 in experiment [1] was < 0.01 µM (active); in experiment [2], < 0.01 µM (active); in experiment [3], < 0.01 µM (active); in experiment [4], < 0.0164 µM (active); in [5], < 0.0212 µM (active); in [6], 0.0153 µM. Further, the GI50 in experiment [7] was < 0.01 µM (active); in experiment [8], < 0.01 µM (active); in [9], < 0.01 µM (active); in experiment [10], < 0.01 µM (active); in [11] it was < 0.0115 µM (active); in experiment [12] it was < 0.01 µM (active). Moreover, the GI50 in [13] is < 0.0229 µM (active); in [14], < 0.01 µM (active); in [15], < 0.01 µM (active); in experiment [16] it was < 0.01 µM (active); in experiment [17], < 0.01 µM (active); in experiment [18] it was < 0.01 µM (active).

Turning to `COC(=O)/C=C1/OC(c2ccc(OC)cc2)=C(Cl)C1=O`, the GI50 in experiment [1] is 12.1 µM (inactive); in [2] it was 17.3 µM (inactive); in experiment [3], 13.3 µM (inactive); in experiment [4] it was 9.91 µM (inactive); in experiment [5], 19.1 µM (inactive); in [6], 17.5 µM. Moreover, the GI50 in experiment [7] is 20.6 µM (inactive); in [8] it was 2.73 µM (inactive); in [9], 8.32 µM (inactive); in [10], 2.96 µM (inactive); in experiment [11] it was 16.2 µM (inactive); in experiment [12], 17.6 µM (inactive). Also, the GI50 in experiment [13] was 15.2 µM (inactive); in experiment [14], 19.9 µM (inactive); in experiment [15] it was 19.1 µM (inactive); in [16], 14 µM (inactive); in experiment [17] it was 18.9 µM (inactive); in [18] it was 17.9 µM (inactive).

For the compound `COc1cc(O)c2c(O)c3c(c4c2c1[C@]1(C4)C(C)=CCCC1(C)C)[C@H](O)[C@@]1(O)CC(O)=C(C(N)=O)C(=O)[C@@]1(O)C3=O`, the GI50 in experiment [1] is 0.247 µM (active); in experiment [2], 0.209 µM (active); in [3], 0.318 µM (active); in experiment [4], 0.108 µM (active); in [5], 0.18 µM (active); in experiment [6] it was 0.164 µM. Besides, the GI50 is 0.16 µM (active) in [7]; 0.123 µM (active) in [8]; 0.164 µM (active) in experiment [9]; 0.333 µM (active) in experiment [10]; 0.158 µM (active) in experiment [11]; 0.164 µM (active) in [12]. The GI50 was 0.119 µM (active) in experiment [13]; 0.322 µM (active) in experiment [14]; 0.166 µM (active) in experiment [15]; 0.175 µM (active) in [16]; 0.0531 µM (active) in [17]; 0.108 µM (active) in experiment [18].

Turning to `O=C(C#Cc1ccccc1)N1CCCCC1`, the GI50 is 14.4 µM (inactive) in [1]; 58.1 µM (inactive) in experiment [2]; > 100 µM (inactive) in experiment [3]; > 100 µM (inactive) in experiment [4]; 63.2 µM (inactive) in experiment [5]; 49.9 µM in experiment [6]. The GI50 was > 100 µM (inactive) in experiment [7]; 73.6 µM (inactive) in [8]; 44.4 µM (inactive) in [9]; > 100 µM (inactive) in experiment [10]; 40 µM (inactive) in experiment [11]; 45.3 µM (inactive) in experiment [12]. Also, the GI50 in [13] is 77.4 µM (inactive); in [14] it was > 100 µM (inactive); in experiment [15], > 100 µM (inactive); in experiment [16], 56.4 µM (inactive); in [17] it was > 100 µM (inactive); in experiment [18] it was > 100 µM (inactive).

Take `CC1(C)C2CC3C(C)(C2)C31c1cc(Cl)ccc1N` (stereo not drawn): the GI50 in [1] is 15.3 µM (inactive); in experiment [2], 15.6 µM (inactive); in experiment [3], 15.5 µM (inactive); in [4], 19.1 µM (inactive); in experiment [5], 13.7 µM (inactive); in [6], 10.9 µM. Also, the GI50 in experiment [7] was 15.3 µM (inactive); in [8], 10.5 µM (inactive); in [9] it was 13.4 µM (inactive); in [10], 8.36 µM (inactive); in [11] it was 7.53 µM (inactive); in experiment [12] it was 12.3 µM (inactive). Also, the GI50 was 13.8 µM (inactive) in [13]; 15.2 µM (inactive) in [14]; 15.5 µM (inactive) in experiment [15]; 14.2 µM (inactive) in [16]; 14.4 µM (inactive) in experiment [17]; 11.9 µM (inactive) in [18].

With `CN(C)CC(O)c1ccc(Cl)c2ccccc12` (stereo not drawn), the GI50 was 48.3 µM (inactive) in [1]; 45 µM (inactive) in [2]; 57.1 µM (inactive) in experiment [3]; 20.6 µM (inactive) in [4]; > 100 µM (inactive) in [5]; more than 90.2 µM in [6]. The GI50 in experiment [7] was 50.8 µM (inactive); in experiment [8] it was 1.15 µM (inactive); in [9], 32.7 µM (inactive); in [10], 23.2 µM (inactive); in experiment [11], 32.3 µM (inactive); in experiment [12] it was > 87.1 µM (inactive). Besides, the GI50 in [13] is 36.9 µM (inactive); in experiment [14], 24.3 µM (inactive); in experiment [15], 50.1 µM (inactive); in experiment [16], 16.6 µM (inactive); in experiment [17] it was 43.3 µM (inactive); in [18], 17.4 µM (inactive).

Turning to `Cc1ccc(/N=N/c2c(O)ccc3cc(S(=O)(=O)O)ccc23)c(C)c1`, the GI50 was > 100 µM (inactive) in experiment [1]; > 100 µM (inactive) in experiment [2]; > 100 µM (inactive) in [3]; > 100 µM (inactive) in experiment [4]; > 100 µM (inactive) in experiment [5]; more than 100 µM in [6]. The GI50 in [7], in [8], in experiment [9], in [10], in experiment [11] and in experiment [12] was > 100 µM (inactive) each time. Also, the GI50 in [13], in [14], in experiment [15], in experiment [16], in [17] and in experiment [18] was > 100 µM (inactive) throughout.

For `Cc1cc(-c2nc3cc(F)ccc3s2)ccc1N`, the GI50 in experiment [1] was 22.2 µM (inactive); in experiment [2], 22.4 µM (inactive); in experiment [3] it was > 48 µM (inactive); in experiment [4], 8.69 µM (inactive); in [5], 11.2 µM (inactive); in experiment [6], 7.96 µM. Further, the GI50 in experiment [7] is 15.2 µM (inactive); in experiment [8] it was > 49.2 µM (inactive); in [9] it was < 0.01 µM (active); in experiment [10], 34.2 µM (inactive); in experiment [11], 40.8 µM (inactive); in [12], 2.79 µM (inactive). In addition, the GI50 was 17 µM (inactive) in experiment [13]; 14.8 µM (inactive) in experiment [14]; 20.4 µM (inactive) in [15]; 42.4 µM (inactive) in experiment [16]; 31 µM (inactive) in experiment [17]; 20.4 µM (inactive) in [18].

On to `CCOC(=O)c1c2c(n3ccccc13)C(=O)c1ccccc1C2=O`, for which the GI50 is 19.1 µM (inactive) in [1]; 17.9 µM (inactive) in [2]; 21.6 µM (inactive) in [3]; 26.5 µM (inactive) in experiment [4]; > 100 µM (inactive) in [5]; 11.1 µM in experiment [6]. Also, the GI50 was 97.9 µM (inactive) in experiment [7]; > 100 µM (inactive) in [8]; 46 µM (inactive) in experiment [9]; > 100 µM (inactive) in experiment [10]; 7.91 µM (inactive) in [11]; 42.2 µM (inactive) in experiment [12]. The GI50 is > 100 µM (inactive) in experiment [13]; > 100 µM (inactive) in experiment [14]; 36.7 µM (inactive) in experiment [15]; 10.7 µM (inactive) in experiment [16]; > 100 µM (inactive) in experiment [17]; 19.5 µM (inactive) in [18].
